Test results from patent US6458824B1, “Solid preparation” (Dainippon Pharmaceutical Co., Ltd., priority 1999, dated 2002).

Legend:
Assay type in all cases: cell-based
[1] = biological target: T1, human β1-adrenergic receptor (Homo sapiens, UniProt P08588); test: cAMP accumulation in CHO/pKREX23-30 cells highly expressing human β1-adrenergic receptor
T1 construct: expressed in transfected cells; host or cells: CHO (clone CHO/pKREX23-30)
Description: (§1) The cells were peeled off by incubation with phosphate-buffered saline containing 0.5 mM EDTA at 37° C. for 10 minutes after the medium was removed. The CHO/pKREX10-36 cells were collected by centrifugation, and suspended in Hanks' buffer (ICN Biomedicals) containing 1 mM L-ascorbic acid and 1 mM 3-isobutyl-1-methylxanthine at the concentration of about 5×10^5 cells/ml. This suspension (100 μl) and a test compound were mixed in the same buffer (500 μl) and incubated at 37° C. for 30 minutes, followed by boiling for 5 minutes to terminate the reaction. After centrifugation of the reaction mixture, the amount of cAMP in the supernatant was measured by using cAMP EIA System (Amersham).
(§2) Similarly, the amount of cAMP was measured in the same manner by using CHO/pKREX21-8 for highly expressing human β2-adrenergic receptor, or by using CHO/pKREX23-30 for highly expressing human β1-adrenergic receptor instead of the CHO/pKREX10-36 for highly expressing human β3-adrenergic receptor.

[2] = biological target: T2, human β2-adrenergic receptor (Homo sapiens, UniProt P07550); test: cAMP accumulation in CHO/pKREX21-8 cells highly expressing human β2-adrenergic receptor
T2 construct: expressed in transfected cells; host or cells: CHO (clone CHO/pKREX21-8)
T2 sequence (P07550 whole entry): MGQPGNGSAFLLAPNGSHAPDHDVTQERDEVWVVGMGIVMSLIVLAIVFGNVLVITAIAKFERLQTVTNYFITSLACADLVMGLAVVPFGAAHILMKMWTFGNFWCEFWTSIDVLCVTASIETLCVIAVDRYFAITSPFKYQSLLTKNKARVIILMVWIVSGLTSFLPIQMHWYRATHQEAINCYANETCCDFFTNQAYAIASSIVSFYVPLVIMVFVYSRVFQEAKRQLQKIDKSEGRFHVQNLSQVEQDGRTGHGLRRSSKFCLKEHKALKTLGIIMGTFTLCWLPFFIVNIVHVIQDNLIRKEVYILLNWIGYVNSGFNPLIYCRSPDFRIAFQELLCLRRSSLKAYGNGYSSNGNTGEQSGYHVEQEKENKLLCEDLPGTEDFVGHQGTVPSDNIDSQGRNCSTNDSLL
Description: as §1, §2

[3] = biological target: T3, human β3-adrenergic receptor (Homo sapiens, UniProt P13945); test: cAMP accumulation in CHO/pKREX10-36 cells highly expressing human β3-adrenergic receptor
T3 construct: expressed in transfected cells; host or cells: CHO (clone CHO/pKREX10-36)
T3 sequence (P13945 whole entry): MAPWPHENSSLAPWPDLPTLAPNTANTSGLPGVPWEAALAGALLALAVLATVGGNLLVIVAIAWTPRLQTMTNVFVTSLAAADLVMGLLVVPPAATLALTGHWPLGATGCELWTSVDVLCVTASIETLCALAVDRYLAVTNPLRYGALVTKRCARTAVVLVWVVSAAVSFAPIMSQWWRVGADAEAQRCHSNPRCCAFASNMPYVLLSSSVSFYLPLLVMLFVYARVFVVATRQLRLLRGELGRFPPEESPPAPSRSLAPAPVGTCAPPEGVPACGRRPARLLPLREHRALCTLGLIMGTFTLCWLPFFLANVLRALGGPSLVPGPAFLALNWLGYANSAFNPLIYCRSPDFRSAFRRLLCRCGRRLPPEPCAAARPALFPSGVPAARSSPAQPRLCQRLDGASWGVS
Description: as §1

T1 sequence (P08588 whole entry): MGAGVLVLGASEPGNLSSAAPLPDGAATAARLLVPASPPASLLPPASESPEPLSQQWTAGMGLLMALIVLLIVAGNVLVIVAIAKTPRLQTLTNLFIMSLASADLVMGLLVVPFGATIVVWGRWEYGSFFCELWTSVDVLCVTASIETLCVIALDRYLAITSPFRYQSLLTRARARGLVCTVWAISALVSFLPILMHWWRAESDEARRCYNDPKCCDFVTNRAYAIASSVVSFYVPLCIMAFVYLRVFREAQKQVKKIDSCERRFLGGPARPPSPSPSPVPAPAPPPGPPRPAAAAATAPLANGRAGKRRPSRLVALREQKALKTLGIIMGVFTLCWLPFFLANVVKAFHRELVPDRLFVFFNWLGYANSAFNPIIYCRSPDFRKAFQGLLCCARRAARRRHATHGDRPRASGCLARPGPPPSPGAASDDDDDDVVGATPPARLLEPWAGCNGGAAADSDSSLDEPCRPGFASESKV

EC50 ([1]; cAMP accumulation, CHO/pKREX23-30): 3.5 nM
stimulating activity of human β1-adrenergic receptor (in words) ([1]; conclusion from Table 1): quite weak
Emax ([1]; relative maximal response, 10^-5 M (−)-isoproterenol = 100%, read-out: β1-receptor I.A. (intrinsic activity)): 83%
EC50 ([2]; cAMP accumulation, CHO/pKREX21-8): 21 nM
stimulating activity of human β2-adrenergic receptor (in words) ([2]; conclusion from Table 1): quite weak
Emax ([2]; relative maximal response, 10^-5 M (−)-isoproterenol = 100%, read-out: β2-receptor I.A. (intrinsic activity)): 45%
EC50 ([3]; cAMP accumulation, CHO/pKREX10-36, 37° C. 30 minutes): 0.27 nM
stimulating activity of human β3-adrenergic receptor (in words) ([3]; conclusion from Table 1): potent
Emax ([3]; relative maximal response, 10^-5 M (−)-isoproterenol = 100%, read-out: β3-receptor I.A. (intrinsic activity)): 110%
SMILES: C[C@H](Cc1c[nH]c2c(OCC(=O)O)cccc12)NC[C@H](O)c1cccc(Cl)c1 [Compound A, [3-[(2R)-[[(2R)-(3-chlorophenyl)-2-hydroxyethyl]amino]propyl]-1H-indol-7-yloxy]acetic acid]
